Experimental findings from patent US8188078B2 (Sanofi-Aventis, priority 2007, dated 2012) are described below.

Structures can show the parent of a compound that is named as a salt.

For orientation: IC50 means the concentration needed to halve the response being measured.

The target in one assay is RON (Homo sapiens, UniProt Q04912). As to the kind of experiment: Test B: HTRF RON test in 96-well format. The format is biochemical. A digest of the protocol: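 RON 5 nM pre-incubated 30 min at RT with compound (0.17 nM–10 μM final, 3% DMSO) in MOPS 10 mM pH 7, DTT, Tween 20. Reaction with biotinylated poly-(GAT) 1 μg/ml, ATP 10 μM, MgCl2 5 mM, 30 min RT. Eu-anti-pTyr/streptavidin-XL665 HTRF, 665/620 ratio gives % inhibition, IC50.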
On the technique in general: TR-FRET usually uses a lanthanide donor and a delayed reading to cut background.

For the next assay, the target named is T1, MET (Homo sapiens, UniProt P08581).
T1 construct: endogenous in cells; host or cells: MKN45 cells
In words: Test C: inhibition of the autophosphorylation of MET, ELISA technique (pppY1230, 1234, 1235), MKN45 cells. The format is cell-based. A digest of the protocol:
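MKN45 cells adhered 24 h, then treated 1 h with compound at 6 concentrations in duplicate, final range 10000 to 30 nM. Lysates assayed by phospho-MET (pY1230/1234/1235) sandwich ELISA with HRP chromogen read at 450 nm.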

Chain of RON (Q04912 25-1400): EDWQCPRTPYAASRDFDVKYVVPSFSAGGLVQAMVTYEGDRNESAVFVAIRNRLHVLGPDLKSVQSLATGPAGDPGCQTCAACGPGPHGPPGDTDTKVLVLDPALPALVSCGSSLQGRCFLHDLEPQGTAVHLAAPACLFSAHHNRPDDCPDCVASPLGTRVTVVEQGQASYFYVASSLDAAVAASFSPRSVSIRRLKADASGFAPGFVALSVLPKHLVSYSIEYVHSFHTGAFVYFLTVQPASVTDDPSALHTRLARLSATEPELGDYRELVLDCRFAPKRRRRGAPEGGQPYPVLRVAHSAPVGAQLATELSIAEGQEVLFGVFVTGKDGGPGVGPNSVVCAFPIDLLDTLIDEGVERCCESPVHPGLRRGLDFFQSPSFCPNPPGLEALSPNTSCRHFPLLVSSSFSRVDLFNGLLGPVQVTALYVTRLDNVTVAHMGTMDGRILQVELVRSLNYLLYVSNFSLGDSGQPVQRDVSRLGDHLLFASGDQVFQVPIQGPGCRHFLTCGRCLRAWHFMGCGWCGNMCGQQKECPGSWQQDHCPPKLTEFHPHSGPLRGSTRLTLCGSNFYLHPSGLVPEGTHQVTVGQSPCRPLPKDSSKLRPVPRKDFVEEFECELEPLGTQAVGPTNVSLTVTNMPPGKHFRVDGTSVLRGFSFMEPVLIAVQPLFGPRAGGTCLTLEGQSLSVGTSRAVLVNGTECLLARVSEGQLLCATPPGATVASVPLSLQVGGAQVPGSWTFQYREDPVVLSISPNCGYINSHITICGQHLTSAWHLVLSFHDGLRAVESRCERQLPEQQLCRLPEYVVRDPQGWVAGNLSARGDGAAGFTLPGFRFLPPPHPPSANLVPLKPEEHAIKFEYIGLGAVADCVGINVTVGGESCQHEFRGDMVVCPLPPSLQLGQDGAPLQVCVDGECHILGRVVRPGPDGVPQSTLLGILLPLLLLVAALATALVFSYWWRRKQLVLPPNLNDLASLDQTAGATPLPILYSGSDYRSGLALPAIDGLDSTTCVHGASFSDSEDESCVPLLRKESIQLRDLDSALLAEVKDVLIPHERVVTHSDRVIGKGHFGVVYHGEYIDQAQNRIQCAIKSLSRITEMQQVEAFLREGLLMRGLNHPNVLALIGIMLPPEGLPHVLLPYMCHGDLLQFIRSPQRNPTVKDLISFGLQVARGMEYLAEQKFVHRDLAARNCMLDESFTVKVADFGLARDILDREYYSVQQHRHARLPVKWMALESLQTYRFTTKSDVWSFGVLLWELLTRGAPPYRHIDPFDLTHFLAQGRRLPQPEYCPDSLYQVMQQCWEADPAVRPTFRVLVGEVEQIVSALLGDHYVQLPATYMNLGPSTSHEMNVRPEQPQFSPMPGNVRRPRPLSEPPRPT
T1 sequence (P08581 25-1390): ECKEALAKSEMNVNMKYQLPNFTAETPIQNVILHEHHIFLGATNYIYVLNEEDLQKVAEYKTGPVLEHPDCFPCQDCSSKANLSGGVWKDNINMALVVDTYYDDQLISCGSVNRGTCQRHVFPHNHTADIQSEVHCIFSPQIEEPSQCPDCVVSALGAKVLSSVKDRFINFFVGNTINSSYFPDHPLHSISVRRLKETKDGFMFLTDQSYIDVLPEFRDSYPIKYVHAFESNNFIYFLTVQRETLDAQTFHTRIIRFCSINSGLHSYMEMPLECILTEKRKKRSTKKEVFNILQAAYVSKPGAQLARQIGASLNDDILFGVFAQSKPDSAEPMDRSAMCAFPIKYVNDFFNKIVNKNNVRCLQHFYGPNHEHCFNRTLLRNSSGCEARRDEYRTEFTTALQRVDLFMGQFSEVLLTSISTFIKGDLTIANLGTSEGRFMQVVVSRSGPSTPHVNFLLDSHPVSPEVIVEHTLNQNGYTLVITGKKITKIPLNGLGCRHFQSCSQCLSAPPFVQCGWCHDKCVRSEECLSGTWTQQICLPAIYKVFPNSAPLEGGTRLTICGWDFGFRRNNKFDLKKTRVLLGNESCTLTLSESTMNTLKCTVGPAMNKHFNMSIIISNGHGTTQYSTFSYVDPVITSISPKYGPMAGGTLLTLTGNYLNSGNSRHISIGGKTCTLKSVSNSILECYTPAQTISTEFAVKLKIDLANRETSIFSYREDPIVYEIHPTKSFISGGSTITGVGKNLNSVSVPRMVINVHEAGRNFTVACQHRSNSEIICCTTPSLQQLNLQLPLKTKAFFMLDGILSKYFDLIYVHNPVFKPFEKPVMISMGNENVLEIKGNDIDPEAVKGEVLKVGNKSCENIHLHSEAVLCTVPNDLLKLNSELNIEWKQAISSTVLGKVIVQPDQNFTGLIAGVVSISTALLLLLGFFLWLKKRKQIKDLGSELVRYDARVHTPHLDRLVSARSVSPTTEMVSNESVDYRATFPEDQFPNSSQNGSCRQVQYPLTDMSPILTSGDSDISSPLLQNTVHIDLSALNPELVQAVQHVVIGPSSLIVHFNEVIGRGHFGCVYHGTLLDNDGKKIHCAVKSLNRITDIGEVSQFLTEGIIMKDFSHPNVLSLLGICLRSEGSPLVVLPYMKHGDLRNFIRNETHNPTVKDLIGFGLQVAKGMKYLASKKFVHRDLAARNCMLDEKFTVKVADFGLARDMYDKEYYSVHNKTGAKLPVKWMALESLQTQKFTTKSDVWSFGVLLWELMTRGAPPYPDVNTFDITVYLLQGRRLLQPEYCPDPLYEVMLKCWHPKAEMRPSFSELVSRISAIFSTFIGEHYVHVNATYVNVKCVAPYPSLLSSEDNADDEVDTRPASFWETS

Turning to `CC(Oc1ccc2nc(NC(=O)NCCN3CCN(C)CC3)sc2c1)c1c(F)ccc(Cl)c1Cl` (stereo not drawn) [Example 108, 1-{6-[1-(2,3-dichloro-6-fluorophenyl)ethoxy]-1,3-benzothiazol-2-yl}-3-[2-(4-methylpiperazin-1-yl)ethyl]urea], the IC50 against RON and against MET was less than 500 nM in each case.
For the molecule `CC(Oc1cc2[nH]c(NC(=O)NCCN3CCOCC3)nc2cc1F)c1c(Cl)cccc1Cl` (stereo not drawn) [Example 5, 1-{6-[1-(2,6-dichlorophenyl)ethoxy]-5-fluoro-1H-benzimidazol-2-yl}-3-(2-morpholin-4-ylethyl)urea], the IC50 against RON was less than 500 nM; on MET, 500 to 10000 nM.
Taken in the same sequence, the figures for `CC(Oc1cc2sc(NC(=O)NCCN3CCCC3)nc2cc1F)c1c(Cl)ccc(Cl)c1Cl` (stereo not drawn) [Example 126, 1-{5-fluoro-6-[1-(2,3,6-trichlorophenyl)ethoxy]-1,3-benzothiazol-2-yl}-3-[2-(pyrrolidin-1-yl)ethyl]urea] were 500 to 10000 nM and 500 to 10000 nM.
The like results for `CC(Oc1cc2sc(NC(=O)NCCCN3CCCC3=O)nc2cc1F)c1c(F)ccc(Cl)c1Cl` (stereo not drawn) [Example 114, 1-{6-[1-(2,3-dichloro-6-fluorophenyl)ethoxy]-5-fluoro-1,3-benzothiazol-2-yl}-3-[3-(2-oxopyrrolidin-1-yl)propyl]urea] were, in that order, less than 500 nM and less than 500 nM.
Consider `CC(Oc1cc2sc(NC(=O)NCCN3CCNC(=O)C3)nc2cc1F)c1c(Cl)ccc(F)c1Cl` (stereo not drawn) [Example 130, 1-{6-[1-(2,6-dichloro-3-fluorophenyl)ethoxy]-5-fluoro-1,3-benzothiazol-2-yl}-3-[2-(3-oxopiperazin-1-yl)ethyl]urea], for which the “test B” value on RON was “+=”. Also, the IC50 against MET was less than 500 nM.
In the case of `CCN1CCN(CCNC(=O)Nc2nc3cc(F)c(OC(C)c4c(Cl)ccc(F)c4Cl)cc3s2)CC1` (single isomer, unassigned) [Example 102, 1-{6-[(1S*)-1-(2,6-dichloro-3-fluorophenyl)ethoxy]-5-fluoro-1,3-benzothiazol-2-yl}-3-[2-(4-ethylpiperazin-1-yl)ethyl]urea], the IC50 on RON and at MET was 500 to 10000 nM in each case.
`CC(Oc1ccc2nc(NC(=O)NCCN3CCCC3)sc2c1)c1c(Cl)ccc(Cl)c1Cl` (stereo not drawn) [Example 125, 1-[2-(pyrrolidin-1-yl)ethyl]-3-{6-[1-(2,3,6-trichlorophenyl)ethoxy]-1,3-benzothiazol-2-yl}urea]: the IC50 at RON and on MET was 500 to 10000 nM in each case.
Consider `CNCCCNC(=O)Nc1nc2cc(F)c(OC(C)c3c(Cl)ccc(F)c3Cl)cc2s1` (stereo not drawn) [Example 127, 1-{6-[1-(2,6-dichloro-3-fluorophenyl)ethoxy]-5-fluoro-1,3-benzothiazol-2-yl}-3-[3-(methylamino)propyl]urea], for which the values for the concentration for half-maximal inhibition (IC50) at RON and at MET were 500 to 10000 nM and less than 500 nM, respectively.
Consider “{6-[1-(2,6-dichloro-3-fluorophenyl)ethoxy]-5-fluoro-1,3-benzothiazol-2-yl}2-(pyrrolidin-1-yl)ethyl carbamate [Example 73]”, for which the half-maximal inhibitory concentration (IC50) against RON and against MET was 500 to 10000 nM in each case.
In the case of `CC(Oc1ccc2nc(NC(=O)NCCN3CCC(Cc4ccccc4)CC3)sc2c1)c1c(Cl)ccc(F)c1Cl` (stereo not drawn) [Example 34, 1-[2-(4-benzylpiperidin-1-yl)ethyl]-3-{6-[1-(2,6-dichloro-3-fluorophenyl)ethoxy]-1,3-benzothiazol-2-yl}urea], the IC50 at RON and at MET was 500 to 10000 nM in each case.
Consider `CC(Oc1ccc2nc(NC(=O)NCCCN3C(C)CCCC3C)sc2c1)c1c(Cl)ccc(F)c1Cl` (stereo not drawn) [Example 47, 1-{6-[1-(2,6-dichloro-3-fluorophenyl)ethoxy]-1,3-benzothiazol-2-yl}-3-[3-(2,6-dimethylpiperidin-1-yl)propyl]urea], for which the IC50 on RON and on MET was 500 to 10000 nM each time.
With `CC(Oc1ccc2nc(NC(=O)NCCN3CCN(Cc4ccccc4)CC3)sc2c1)c1c(Cl)ccc(F)c1Cl` (stereo not drawn) [Example 35, 1-[2-(4-benzylpiperazin-1-yl)ethyl]-3-{6-[1-(2,6-dichloro-3-fluorophenyl)ethoxy]-1,3-benzothiazol-2-yl}urea], the IC50 against RON and against MET was 500 to 10000 nM throughout.
As to `C[C@@H](Oc1cc2sc(NC(=O)NCCN3CCOCC3)nc2cc1F)c1c(Cl)ccc(F)c1Cl` (single isomer, unassigned) [Example 32, 1-{6-[(1R)-(2,6-dichloro-3-fluorophenyl)ethoxy]-5-fluoro-1,3-benzothiazol-2-yl}-3-(2-morpholin-4-ylethyl)urea or 1-{6-[(1S)-(2,6-dichloro-3-fluorophenyl)ethoxy]-5-fluoro-1,3-benzothiazol-2-yl}-3-(2-morpholin-4-ylethyl)urea], the half-inhibitory concentration (IC50) against RON and at MET was less than 500 nM in each case.
Regarding `CC(Oc1ccc2nc(NC(=O)NCCC3CCCN3C)sc2c1)c1c(F)ccc(Cl)c1Cl` (stereo not drawn) [Example 110, 1-{6-[1-(2,3-dichloro-6-fluorophenyl)ethoxy]-1,3-benzothiazol-2-yl}-3-[2-(1-methylpyrrolidin-2-yl)ethyl]urea], the concentration for half-maximal inhibition (IC50) on RON and on MET was less than 500 nM each time.
Turning to `CC(Oc1ccc2nc(NC(=O)NCCC3CCCN3C)sc2c1)c1c(Cl)ccc(F)c1Cl` (stereo not drawn) [Example 53, 1-{6-[1-(2,6-dichloro-3-fluorophenyl)ethoxy]-1,3-benzothiazol-2-yl}-3-[2-(1-methylpyrrolidin-2-yl)ethyl]urea], the IC50 on RON and against MET was less than 500 nM throughout.
With `CC(Oc1ccc2nc(NC(=O)NCCCN3CCC(Cc4ccccc4)CC3)sc2c1)c1c(Cl)ccc(F)c1Cl` (stereo not drawn) [Example 41, 1-[3-(4-benzylpiperidin-1-yl)propyl]-3-{6-[1-(2,6-dichloro-3-fluorophenyl)ethoxy]-1,3-benzothiazol-2-yl}urea], the half-inhibitory concentration (IC50) against RON and on MET was 500 to 10000 nM each time.
With `COCCCNC(=O)Nc1nc2cc(F)c(OC(C)c3c(Cl)ccc(F)c3Cl)cc2s1` (stereo not drawn) [Example 104, 1-{6-[1-(2,6-dichloro-3-fluorophenyl)ethoxy]-5-fluoro-1,3-benzothiazol-2-yl}-3-(3-methoxypropyl)urea], the 50% inhibitory concentration (IC50) on RON and at MET was less than 500 nM throughout.
In the case of `CC(Oc1ccc2nc(NC(=O)NCCCN(C)C)sc2c1)c1c(Cl)ccc(F)c1Cl` (stereo not drawn) [Example 43, 1-{6-[1-(2,6-dichloro-3-fluorophenyl)ethoxy]-1,3-benzothiazol-2-yl}-3-[3-(dimethylamino)propyl]urea], the half-maximal inhibitory concentration (IC50) against RON and against MET was less than 500 nM each time.
With `CC(Oc1ccc2nc(NC(=O)NCCCN3CCOCC3)sc2c1)c1c(Cl)ccc(F)c1Cl` (stereo not drawn) [Example 42, 1-{6-[1-(2,6-dichloro-3-fluorophenyl)ethoxy]-1,3-benzothiazol-2-yl}-3-(3-morpholin-4-ylpropyl)urea], the IC50 on RON was 500 to 10000 nM; on MET, less than 500 nM.
Taken in the same sequence, the figures for `CC(Oc1cc2sc(NC(=O)NCCN3CCOCC3)nc2cc1Cl)c1c(Cl)ccc(F)c1Cl` (stereo not drawn) [Example 106, 1-{5-chloro-6-[1-(2,6-dichloro-3-fluorophenyl)ethoxy]-1,3-benzothiazol-2-yl}-3-[2-(morpholin-4-yl)ethyl]urea] were 500 to 10000 nM and 500 to 10000 nM.
The like results for `CC(Oc1cc2sc(NC(=O)NCCN3CCOCC3)nc2cc1F)c1c(F)ccc(Cl)c1Cl` (single isomer, unassigned) [Example 113, 1-{6-[(1S*)-1-(2,3-dichloro-6-fluorophenyl)ethoxy]-5-fluoro-1,3-benzothiazol-2-yl}-3-[2-(morpholin-4-yl)ethyl]urea] were, in that order, 500 to 10000 nM and less than 500 nM.
Taken in the same sequence, the figures for `CC(Oc1ccc2nc(NC(=O)NCc3ccccn3)sc2c1)c1c(Cl)ccc(F)c1Cl` (stereo not drawn) [Example 58, 1-{6-[1-(2,6-dichloro-3-fluorophenyl)ethoxy]-1,3-benzothiazol-2-yl}-3-(pyridin-2-ylmethyl)urea] were 500 to 10000 nM and 500 to 10000 nM.
For `CC(Oc1cc2sc(NC(=O)NCC(=O)N3CCN(C)CC3)nc2cc1F)c1c(Cl)ccc(F)c1Cl` (stereo not drawn) [Example 129, 1-{6-[1-(2,6-dichloro-3-fluorophenyl)ethoxy]-5-fluoro-1,3-benzothiazol-2-yl}-3-[2-(4-methylpiperazin-1-yl)-2-oxoethyl]urea], the IC50 against RON was 500 to 10000 nM; at MET it was less than 500 nM.
Taken in the same sequence, the figures for `CC(Oc1cc2sc(NC(=O)NCCOCC3CC3)nc2cc1F)c1c(Cl)ccc(F)c1Cl` (stereo not drawn) [Example 103, 1-[2-(cyclopropylmethoxy)ethyl]-3-{6-[1-(2,6-dichloro-3-fluorophenyl)ethoxy]-5-fluoro-1,3-benzothiazol-2-yl}urea] were 500 to 10000 nM and 500 to 10000 nM.
Taken in the same sequence, the figures for `CC(Oc1cc2sc(NC(=O)NCCO)nc2cc1F)c1c(Cl)ccc(F)c1Cl` (single isomer, unassigned) [Example 99, 1-{6-[(1R*)-1-(2,6-dichloro-3-fluorophenyl)ethoxy]-5-fluoro-1,3-benzothiazol-2-yl}-3-(2-hydroxyethyl)urea] were less than 500 nM and less than 500 nM.
Regarding `CCN(CC)CCCOC(=O)Nc1nc2cc(F)c(OC(C)c3c(Cl)ccc(F)c3Cl)cc2s1` (stereo not drawn) [Example 70], the IC50 on RON and against MET was 500 to 10000 nM each time.
Take `CC(Oc1ccc2nc(NC(=O)NCCC3CCNCC3)sc2c1)c1c(Cl)ccc(F)c1Cl` (stereo not drawn) [Example 39, 1-{6-[1-(2,6-Dichloro-3-fluorophenyl)ethoxy]-1,3-benzothiazol-2-yl}-3-(2-piperidin-4-ylethyl)urea trifluoroacetate]: the IC50 at RON and on MET was less than 500 nM in each case.
